Laboratory results: ChEMBL document CHEMBL4715821, “Discovery of 4-ethoxy-7H-pyrrolo[2,3-d]pyrimidin-2-amines as potent, selective and orally bioavailable LRRK2 inhibitors” (Bioorg Med Chem Lett, 2018)

How the values were obtained:
[1] = molecular target: Serine/threonine-protein kinase Chk1 (Homo sapiens) (UniProt O14757); test: Inhibition of CHK1 (unknown origin) assessed as residual activity at 1 uM by Kinomescan method relative to control
[2] = molecular target: Myosin light chain kinase 2, skeletal/cardiac muscle (Homo sapiens) (UniProt Q9H1R3); test: Inhibition of MLCK2 (unknown origin) assessed as residual activity at 1 uM by Kinomescan method relative to control
[3] = molecular target: Mitogen-activated protein kinase kinase kinase 11 (Homo sapiens) (UniProt Q16584); test: Inhibition of wild-type human partial length MLK3 (I77 to W399 residues) expressed in bacterial expression system assessed as residual activity at 1 uM by Kinomescan method relative to control
[4] = molecular target: Serine/threonine-protein kinase 17A (Homo sapiens) (UniProt Q9UEE5); test: Inhibition of wild-type human partial length DRAK1 (R32 to E363 residues) expressed in bacterial expression system assessed as residual activity at 1 uM by Kinomescan method
[5] = molecular target: Macrophage-stimulating protein receptor (Homo sapiens) (UniProt Q04912); test: Inhibition of wild-type human partial length MST1R (I1057 to L1363 residues) expressed in bacterial expression system assessed as residual activity at 1 uM by Kinomescan method relative to control
[6] = molecular target: Serine/threonine-protein kinase D1 (Homo sapiens) (UniProt Q15139); test: Inhibition of wild-type human partial length PRKD1 (G551 to E870 residues) expressed in bacterial expression system assessed as residual activity at 1 uM by Kinomescan method relative to control
[7] = molecular target: TGF-beta receptor type-1 (Homo sapiens) (UniProt P36897); test: Inhibition of wild-type human partial length TGFBR1 (D179 to M503 residues) expressed in bacterial expression system assessed as residual activity at 1 uM by Kinomescan method relative to control
[8] = molecular target: Dual specificity mitogen-activated protein kinase kinase 2 (Homo sapiens) (UniProt P36507); test: Inhibition of wild-type human full length MEK2 (M1 to V400 residues) expressed in mammalian expression system assessed as residual activity at 1 uM by Kinomescan method relative to control
[9] = molecular target: Non-receptor tyrosine-protein kinase TNK1 (Homo sapiens) (UniProt Q13470); test: Inhibition of wild-type human full length TNK1 (M1 to P661 residues) expressed in bacterial expression system assessed as residual activity at 1 uM by Kinomescan method relative to control
[10] = molecular target: Serine/threonine-protein kinase N1 (Homo sapiens) (UniProt Q16512); test: Inhibition of wild-type human partial length PKN1 (E598 to C948 residues) expressed in bacterial expression system assessed as residual activity at 1 uM by Kinomescan method relative to control
[11] = molecular target: Testis-specific serine/threonine-protein kinase 1 (Homo sapiens) (UniProt Q9BXA7); test: Inhibition of wild-type human full length TSSK1B (M1 to Q367 residues) expressed in bacterial expression system assessed as residual activity at 1 uM by Kinomescan method relative to control
[12] = molecular target: CDK6/cyclin D3 (Homo sapiens) (UniProt P30281+Q00534); test: Inhibition of wild-type human full length CDK6 (M1 to A326 residues)/cyclin D3 expressed in mammalian expression system assessed as residual activity at 1 uM by Kinomescan method relative to control
[13] = molecular target: Calcium/calmodulin-dependent protein kinase type II subunit alpha (Homo sapiens) (UniProt Q9UQM7); test: Inhibition of wild-type human partial length CAMK2A (M1 to K328 residues) expressed in bacterial expression system assessed as residual activity at 1 uM by Kinomescan method relative to control
[14] = molecular target: Mitogen-activated protein kinase 11 (Homo sapiens) (UniProt Q15759); test: Inhibition of wild-type human full length p38-beta (M1 to Q364 residues) expressed in bacterial expression system assessed as residual activity at 1 uM by Kinomescan method relative to control
[15] = molecular target: MAP kinase-activated protein kinase 2 (Homo sapiens) (UniProt P49137); test: Inhibition of wild-type human partial length MAPKAPK2 (V48 to D345 residues) expressed in bacterial expression system assessed as residual activity at 1 uM by Kinomescan method relative to control
[16] = molecular target: Serine/threonine-protein kinase D3 (Homo sapiens) (UniProt O94806); test: Inhibition of wild-type human partial length PRKD3 (S543 to E863 residues) expressed in bacterial expression system assessed as residual activity at 1 uM by Kinomescan method relative to control
[17] = molecular target: Serine/threonine-protein kinase STK11 (Homo sapiens) (UniProt Q15831); test: Inhibition of wild-type human full length LKB1 (M1 to Q433 residues) expressed in bacterial expression system assessed as residual activity at 1 uM by Kinomescan method relative to control
[18] = molecular target: Serine/threonine-protein kinase TBK1 (Homo sapiens) (UniProt Q9UHD2); test: Inhibition of wild-type human full length TBK1 (M1 to L729 residues) expressed in mammalian expression system assessed as residual activity at 1 uM by Kinomescan method relative to control
[19] = molecular target: SRSF protein kinase 3 (Homo sapiens) (UniProt Q9UPE1); test: Inhibition of MSSK1 (unknown origin) assessed as residual activity at 1 uM by Kinomescan method relative to control
[20] = molecular target: Macrophage colony-stimulating factor 1 receptor (Homo sapiens) (UniProt P07333); test: Inhibition of FMS (unknown origin) assessed as residual activity at 1 uM by Kinomescan method relative to control
[21] = molecular target: Activin receptor type-1-like (Homo sapiens) (UniProt P37023); test: Inhibition of wild-type human partial length ACVRL1 (L164 to Q503 residues) expressed in bacterial expression system assessed as residual activity at 1 uM by Kinomescan method relative to control
[22] = molecular target: Serine/threonine-protein kinase Nek5 (Homo sapiens) (UniProt Q6P3R8); test: Inhibition of wild-type human partial length NEK5 (M1 to M279 residues) expressed in bacterial expression system assessed as residual activity at 1 uM by Kinomescan method relative to control
[23] = molecular target: Insulin-like growth factor 1 receptor (Homo sapiens) (UniProt P08069); test: Inhibition of wild-type human partial length IGF1R (L972 to D1294 residues) expressed in bacterial expression system assessed as residual activity at 1 uM by Kinomescan method relative to control
[24] = molecular target: Serine/threonine-protein kinase TAO3 (Homo sapiens) (UniProt Q9H2K8); test: Inhibition of wild-type human partial length TAOK3 (M1 to T316 residues) expressed in mammalian expression system assessed as residual activity at 1 uM by Kinomescan method relative to control
[25] = molecular target: Leukocyte tyrosine kinase receptor (Homo sapiens) (UniProt P29376); test: Inhibition of wild-type human partial length LTK (P422 to S744 residues) expressed in bacterial expression system assessed as residual activity at 1 uM by Kinomescan method relative to control
[26] = molecular target: Tyrosine-protein kinase BTK (Homo sapiens) (UniProt Q06187); test: Inhibition of wild-type human full length BTK (M1 to S659 residues) expressed in mammalian expression system assessed as residual activity at 1 uM by Kinomescan method relative to control

Chain of Serine/threonine-protein kinase Nek5 (Homo sapiens) (Q6P3R8 whole entry, the tested form may be a part): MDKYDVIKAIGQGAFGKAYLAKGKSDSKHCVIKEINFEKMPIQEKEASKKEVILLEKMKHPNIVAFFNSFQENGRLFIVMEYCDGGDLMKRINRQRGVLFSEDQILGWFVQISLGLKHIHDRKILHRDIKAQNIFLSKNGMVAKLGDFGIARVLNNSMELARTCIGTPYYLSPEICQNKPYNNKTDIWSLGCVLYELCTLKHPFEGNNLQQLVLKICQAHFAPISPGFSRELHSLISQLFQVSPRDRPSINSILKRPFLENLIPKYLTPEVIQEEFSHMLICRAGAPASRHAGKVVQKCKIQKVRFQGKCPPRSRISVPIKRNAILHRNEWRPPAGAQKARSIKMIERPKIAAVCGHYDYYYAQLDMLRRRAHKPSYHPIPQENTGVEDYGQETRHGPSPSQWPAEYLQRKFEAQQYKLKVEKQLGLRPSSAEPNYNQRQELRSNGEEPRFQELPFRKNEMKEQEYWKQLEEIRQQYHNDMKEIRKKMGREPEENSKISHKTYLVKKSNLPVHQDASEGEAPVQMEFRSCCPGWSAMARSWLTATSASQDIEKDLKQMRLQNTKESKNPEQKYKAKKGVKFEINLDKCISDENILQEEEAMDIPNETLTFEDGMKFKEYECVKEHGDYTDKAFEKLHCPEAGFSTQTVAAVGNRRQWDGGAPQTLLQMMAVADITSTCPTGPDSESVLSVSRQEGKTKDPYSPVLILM
Chain of Serine/threonine-protein kinase STK11 (Homo sapiens) (Q15831 whole entry, the tested form may be a part): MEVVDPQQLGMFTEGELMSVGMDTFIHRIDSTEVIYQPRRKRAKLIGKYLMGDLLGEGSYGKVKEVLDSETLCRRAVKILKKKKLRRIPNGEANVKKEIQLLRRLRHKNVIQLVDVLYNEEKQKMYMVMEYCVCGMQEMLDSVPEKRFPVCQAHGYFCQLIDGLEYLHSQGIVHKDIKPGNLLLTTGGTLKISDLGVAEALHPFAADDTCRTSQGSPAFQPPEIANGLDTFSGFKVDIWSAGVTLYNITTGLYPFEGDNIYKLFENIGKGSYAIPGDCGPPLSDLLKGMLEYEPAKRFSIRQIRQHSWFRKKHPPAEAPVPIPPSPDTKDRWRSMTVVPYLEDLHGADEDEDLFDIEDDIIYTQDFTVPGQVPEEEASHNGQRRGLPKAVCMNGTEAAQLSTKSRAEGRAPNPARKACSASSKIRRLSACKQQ
Chain of SRSF protein kinase 3 (Homo sapiens) (Q9UPE1 whole entry): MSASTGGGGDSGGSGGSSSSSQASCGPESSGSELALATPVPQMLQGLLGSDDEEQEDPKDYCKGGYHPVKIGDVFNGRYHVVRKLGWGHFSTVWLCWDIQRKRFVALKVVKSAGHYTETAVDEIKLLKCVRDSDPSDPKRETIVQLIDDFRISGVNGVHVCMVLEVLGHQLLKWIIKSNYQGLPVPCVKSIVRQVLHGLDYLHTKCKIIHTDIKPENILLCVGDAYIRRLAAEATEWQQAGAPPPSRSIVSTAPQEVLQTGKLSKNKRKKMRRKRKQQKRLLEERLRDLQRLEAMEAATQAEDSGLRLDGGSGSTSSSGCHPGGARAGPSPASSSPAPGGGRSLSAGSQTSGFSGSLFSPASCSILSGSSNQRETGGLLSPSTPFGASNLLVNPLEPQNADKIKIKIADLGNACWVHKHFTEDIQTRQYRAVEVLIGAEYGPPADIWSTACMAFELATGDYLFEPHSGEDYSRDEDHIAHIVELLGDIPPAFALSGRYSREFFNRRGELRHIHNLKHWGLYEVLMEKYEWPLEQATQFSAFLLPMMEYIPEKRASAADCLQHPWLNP
Chain of Dual specificity mitogen-activated protein kinase kinase 2 (Homo sapiens) (P36507 whole entry, the tested form may be a part): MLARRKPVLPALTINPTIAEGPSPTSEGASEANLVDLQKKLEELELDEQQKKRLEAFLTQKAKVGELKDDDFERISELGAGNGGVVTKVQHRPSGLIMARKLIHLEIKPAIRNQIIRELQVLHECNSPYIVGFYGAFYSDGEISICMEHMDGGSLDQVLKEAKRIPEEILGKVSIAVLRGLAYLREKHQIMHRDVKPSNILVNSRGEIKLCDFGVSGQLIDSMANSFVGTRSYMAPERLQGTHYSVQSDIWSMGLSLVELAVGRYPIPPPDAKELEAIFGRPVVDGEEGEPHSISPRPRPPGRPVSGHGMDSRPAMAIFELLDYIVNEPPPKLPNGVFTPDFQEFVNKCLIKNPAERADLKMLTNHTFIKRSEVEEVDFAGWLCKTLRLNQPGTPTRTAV
Chain of Mitogen-activated protein kinase kinase kinase 11 (Homo sapiens) (Q16584 whole entry, looked up, the tested form may be a part): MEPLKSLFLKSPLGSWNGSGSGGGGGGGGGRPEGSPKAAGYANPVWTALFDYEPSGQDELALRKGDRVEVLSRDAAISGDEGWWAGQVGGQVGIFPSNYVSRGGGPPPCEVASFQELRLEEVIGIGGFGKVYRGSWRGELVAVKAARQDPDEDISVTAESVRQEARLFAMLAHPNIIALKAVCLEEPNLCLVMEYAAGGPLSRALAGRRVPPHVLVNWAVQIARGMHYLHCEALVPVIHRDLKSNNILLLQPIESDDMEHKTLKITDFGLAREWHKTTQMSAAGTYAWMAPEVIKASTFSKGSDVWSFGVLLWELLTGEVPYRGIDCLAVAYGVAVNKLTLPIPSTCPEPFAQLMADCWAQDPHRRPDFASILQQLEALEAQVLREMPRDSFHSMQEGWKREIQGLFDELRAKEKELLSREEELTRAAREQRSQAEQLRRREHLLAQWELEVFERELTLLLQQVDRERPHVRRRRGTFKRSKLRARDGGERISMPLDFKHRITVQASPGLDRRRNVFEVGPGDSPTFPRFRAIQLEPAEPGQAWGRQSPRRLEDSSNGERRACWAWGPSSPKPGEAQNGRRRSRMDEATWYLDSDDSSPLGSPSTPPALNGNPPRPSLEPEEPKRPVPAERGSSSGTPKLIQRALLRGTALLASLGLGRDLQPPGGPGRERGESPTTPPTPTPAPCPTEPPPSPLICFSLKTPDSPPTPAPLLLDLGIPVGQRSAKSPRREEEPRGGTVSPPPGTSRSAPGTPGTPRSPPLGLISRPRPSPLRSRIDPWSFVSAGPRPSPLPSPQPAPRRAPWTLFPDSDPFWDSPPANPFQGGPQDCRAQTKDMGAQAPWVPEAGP
Chain of Non-receptor tyrosine-protein kinase TNK1 (Homo sapiens) (Q13470 whole entry, the tested form may be a part): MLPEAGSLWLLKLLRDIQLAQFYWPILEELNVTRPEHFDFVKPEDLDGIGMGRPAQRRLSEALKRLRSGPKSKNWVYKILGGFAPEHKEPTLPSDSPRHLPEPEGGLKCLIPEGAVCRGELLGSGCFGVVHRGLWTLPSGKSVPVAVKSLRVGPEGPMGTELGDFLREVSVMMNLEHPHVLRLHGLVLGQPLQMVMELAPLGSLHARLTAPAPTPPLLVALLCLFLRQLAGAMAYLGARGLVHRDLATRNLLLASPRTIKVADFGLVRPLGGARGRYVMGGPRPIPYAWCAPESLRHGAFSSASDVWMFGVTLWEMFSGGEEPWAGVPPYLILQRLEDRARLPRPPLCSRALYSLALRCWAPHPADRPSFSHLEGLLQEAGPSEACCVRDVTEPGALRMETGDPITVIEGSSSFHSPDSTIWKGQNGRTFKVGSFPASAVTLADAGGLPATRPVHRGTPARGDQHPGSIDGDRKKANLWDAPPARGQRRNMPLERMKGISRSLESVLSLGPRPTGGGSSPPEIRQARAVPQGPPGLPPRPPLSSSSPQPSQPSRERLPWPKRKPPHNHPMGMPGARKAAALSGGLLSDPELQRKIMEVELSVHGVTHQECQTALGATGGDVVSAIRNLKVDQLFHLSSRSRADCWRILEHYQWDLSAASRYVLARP
Chain of Calcium/calmodulin-dependent protein kinase type II subunit alpha (Homo sapiens) (Q9UQM7 whole entry, the tested form may be a part): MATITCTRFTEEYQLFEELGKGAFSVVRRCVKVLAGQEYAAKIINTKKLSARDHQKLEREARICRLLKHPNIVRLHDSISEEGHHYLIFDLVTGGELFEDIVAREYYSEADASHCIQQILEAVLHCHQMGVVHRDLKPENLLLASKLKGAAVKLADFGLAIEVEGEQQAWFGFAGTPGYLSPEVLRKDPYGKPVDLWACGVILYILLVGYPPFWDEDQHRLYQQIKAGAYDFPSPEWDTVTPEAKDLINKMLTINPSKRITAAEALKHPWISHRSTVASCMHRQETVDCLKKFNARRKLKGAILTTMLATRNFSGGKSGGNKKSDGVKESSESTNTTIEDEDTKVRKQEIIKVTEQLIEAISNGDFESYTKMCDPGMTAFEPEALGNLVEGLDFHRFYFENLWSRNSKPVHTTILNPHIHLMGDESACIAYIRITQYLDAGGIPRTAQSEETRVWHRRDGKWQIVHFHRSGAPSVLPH
Chain of Serine/threonine-protein kinase TBK1 (Homo sapiens) (Q9UHD2 whole entry, the tested form may be a part): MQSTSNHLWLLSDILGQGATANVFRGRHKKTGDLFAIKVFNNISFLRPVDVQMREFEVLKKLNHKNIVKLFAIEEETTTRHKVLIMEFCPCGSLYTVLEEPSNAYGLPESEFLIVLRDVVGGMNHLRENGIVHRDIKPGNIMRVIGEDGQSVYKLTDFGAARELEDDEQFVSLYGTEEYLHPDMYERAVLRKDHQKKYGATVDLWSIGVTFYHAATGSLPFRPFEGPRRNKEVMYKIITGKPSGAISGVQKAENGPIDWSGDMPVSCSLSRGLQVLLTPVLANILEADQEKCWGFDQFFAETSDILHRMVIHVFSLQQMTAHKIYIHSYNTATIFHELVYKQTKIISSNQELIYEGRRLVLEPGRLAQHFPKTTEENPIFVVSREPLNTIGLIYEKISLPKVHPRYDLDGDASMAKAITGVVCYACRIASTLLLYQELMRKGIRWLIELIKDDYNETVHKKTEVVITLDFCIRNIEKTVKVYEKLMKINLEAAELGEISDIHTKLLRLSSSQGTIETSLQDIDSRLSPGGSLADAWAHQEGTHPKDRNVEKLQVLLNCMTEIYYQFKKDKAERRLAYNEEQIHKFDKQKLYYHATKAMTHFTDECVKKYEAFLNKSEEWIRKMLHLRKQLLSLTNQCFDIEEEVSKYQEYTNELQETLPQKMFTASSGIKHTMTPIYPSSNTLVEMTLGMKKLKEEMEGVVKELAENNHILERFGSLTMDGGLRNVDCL

With `CCOc1nc(Nc2ccc(C(=O)N3CCOCC3)cc2OC)nc2[nH]ccc12` the Activity [1] was 84.5%, the Activity [2] was 95.6% and the Activity [3] was 101%. For the same compound, the Activity [4] was 97.9%, the Activity [5] was 96.9% and the Activity [6] was 46.9%. For the same compound, the Activity [7] was 96.6%, the Activity [8] was 94.5% and the Activity [9] was 46.5%. The Activity [10] was 94.8%, the Activity [11] was 2.41% and the Activity [12] was 96.5%. It also gave an Activity [13] of 214%, an Activity [14] of 101% and an Activity [15] of 91.6%. It also gave an Activity [16] of 63.7%, an Activity [17] of 99% and an Activity [18] of 91.7%. For the same compound, the Activity [19] was 78.1%, the Activity [20] was 106% and the Activity [21] was 74%. The Activity [22] was 94.8%, the Activity [23] was 45.4% and the Activity [24] was 97.8%. The Activity [25] was 20.2% and the Activity [26] was 101%.
